Data from patent publication US20240327429A1, “[1,3]Thiazolo[4,5-d]-pyrimidon-7-ones as inhibitors of NOX4” (Boehringer Ingelheim International GmbH, priority 2023, published 2024).

How the values were obtained:
NOX2 = target: T1, NOX2 (Homo sapiens, UniProt P04839); assay: NOX2 inhibition assay (L-012), human blood-derived granulocytes; format: cell-based; conditions: fMLP/PMA stimulated
T1 construct: endogenous in cells; host or cells: freshly isolated human blood-derived granulocytes
T1 sequence (P04839 2-570 limits assumed): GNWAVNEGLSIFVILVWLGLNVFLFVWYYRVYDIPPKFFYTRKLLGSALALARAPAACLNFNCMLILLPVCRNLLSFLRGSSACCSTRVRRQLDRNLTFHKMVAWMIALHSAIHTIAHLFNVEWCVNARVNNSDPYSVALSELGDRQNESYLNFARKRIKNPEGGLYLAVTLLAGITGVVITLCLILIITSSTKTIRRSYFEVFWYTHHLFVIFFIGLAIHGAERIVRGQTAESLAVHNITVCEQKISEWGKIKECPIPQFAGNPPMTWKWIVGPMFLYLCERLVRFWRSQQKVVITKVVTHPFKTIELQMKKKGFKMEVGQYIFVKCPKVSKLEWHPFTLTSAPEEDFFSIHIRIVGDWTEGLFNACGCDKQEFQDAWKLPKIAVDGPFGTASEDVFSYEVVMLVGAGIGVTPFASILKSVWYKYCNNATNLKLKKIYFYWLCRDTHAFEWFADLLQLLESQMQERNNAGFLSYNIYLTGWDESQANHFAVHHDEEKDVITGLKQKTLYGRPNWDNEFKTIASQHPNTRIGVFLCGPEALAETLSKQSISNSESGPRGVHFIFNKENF
T1 sequence (P13498 2-195 partner limits assumed): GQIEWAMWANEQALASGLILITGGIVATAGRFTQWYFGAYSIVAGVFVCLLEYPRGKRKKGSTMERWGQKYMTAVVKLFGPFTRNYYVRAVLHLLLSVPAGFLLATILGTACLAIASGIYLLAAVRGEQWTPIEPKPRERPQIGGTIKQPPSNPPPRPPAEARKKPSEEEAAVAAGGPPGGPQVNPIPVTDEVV
Protocol: Evaluation of the NOX4 inhibitors on NOX2 activity is assessed in human blood-derived granulocytes.
Afterwards, freshly isolated granulocytes are added to the wells containing the compounds in assay buffer and incubated for 1 h at 37° C. Next, a solution of Nformylmethionine-leucyl-phenylalanine (fMLP; 730 nM), phorbol myristate acetate (PMA, 100 nM) (stimuli of ROS production) and L-012 (200 μM, ROS indicator) is added to the wells and the cells are incubated for additional 30 mins at 37° C. Afterwards luminescence is measured in a SpectraMax M5 microplate reader.

human NOX5 (hNOX5) = target: T2, human NOX5 (hNOX5) (Homo sapiens, UniProt Q96PH1); assay: NOX5 inhibition assay (L-012), HEK293 cells stably overexpressing human NOX5; format: cell-based; conditions: HEK293-hNOX5, PMA stimulated
T2 construct: expressed in transfected cells; host or cells: HEK293
T2 sequence (Q96PH1 1-765): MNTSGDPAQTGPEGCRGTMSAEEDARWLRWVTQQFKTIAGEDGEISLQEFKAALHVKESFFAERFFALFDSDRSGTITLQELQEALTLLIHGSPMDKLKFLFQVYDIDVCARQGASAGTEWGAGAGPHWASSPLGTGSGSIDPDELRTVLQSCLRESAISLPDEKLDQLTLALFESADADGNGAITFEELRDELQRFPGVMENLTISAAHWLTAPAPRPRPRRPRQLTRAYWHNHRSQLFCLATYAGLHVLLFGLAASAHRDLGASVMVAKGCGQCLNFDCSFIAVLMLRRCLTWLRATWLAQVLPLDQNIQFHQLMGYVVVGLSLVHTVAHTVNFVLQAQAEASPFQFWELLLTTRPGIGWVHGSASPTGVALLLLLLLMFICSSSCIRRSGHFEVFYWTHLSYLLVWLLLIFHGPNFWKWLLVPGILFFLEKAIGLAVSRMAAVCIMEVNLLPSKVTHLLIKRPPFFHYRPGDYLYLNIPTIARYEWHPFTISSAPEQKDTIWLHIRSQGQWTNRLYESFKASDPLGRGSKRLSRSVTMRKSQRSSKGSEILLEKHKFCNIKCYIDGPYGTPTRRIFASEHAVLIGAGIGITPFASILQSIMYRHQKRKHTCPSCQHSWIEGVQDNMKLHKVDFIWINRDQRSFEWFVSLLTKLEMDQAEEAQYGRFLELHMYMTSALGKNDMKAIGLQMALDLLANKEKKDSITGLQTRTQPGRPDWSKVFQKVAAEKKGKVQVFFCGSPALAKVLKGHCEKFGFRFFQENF
Protocol: The synthetic gene hNOX5 (Accession: Q96PH1) is cloned into pcDNA3.1_Zeo. […] The final construct is verified by sequencing.
Evaluation of the NOX4 inhibitors on NOX5 activity is assessed in HEK293 cells stably overexpressing human NOX5 (hNOX5).
Cells are seeded in 384 well plates over-night. […] Cells are then stimulated with PMA at 0.1 μM to induce NOX5-dependent ROS production. […] Luminescence is measured with an PHERAstar multimode reader.

human hepatocytes = assay: Evaluation of hepatocyte clearance (metabolic stability); format: in vitro ADME; conditions: 1 μM test compound, 5% human serum, Table 3
Outline: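 Cryopreserved human hepatocytes (typically 1 Mio cells/mL) in supplemented DMEM with 5% human serum incubated with 1 μM compound (0.05% DMSO) at 37° C, sampled to 6 hours. Parent decline by HPLC-MS/MS; CLint = Dose/AUC, scaled to in vivo blood CL via well-stirred model.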

Question: `O=c1c2scnc2nc(SCc2c(F)cc(F)cc2F)n1-c1cnc(O)cc1F` [Example 49, 6-(4-Fluoro-6-hydroxypyridin-3-yl)-5-((2,4,6-trifluorobenzyl)thio)thiazolo[4,5-d]pyrimidin-7(6H)-one] was tested. Which IC50 (NOX2) did it give?
Answer: Its IC50 is > 100 µM.

Question: What about the IC50 (human NOX5 (hNOX5)) of the same molecule?
Answer: The IC50 was > 100 µM.

Question: And the “Qh [%]” value (human hepatocytes)?
Answer: The value was 25%.

Question: Which results are given for `O=c1c2scnc2nc(SCc2c(F)cc(F)cc2F)n1-c1ccc(O)nc1F` [Example 50, 6-(2-Fluoro-6-hydroxypyridin-3-yl)-5-((2,4,6-trifluorobenzyl)thio)thiazolo[4,5-d]-pyrimidin-7(6H)-one]?
Answer: IC50 (NOX2): > 100 µM; IC50 (human NOX5 (hNOX5)): 60.2 µM; Qh [%] (human hepatocytes): 19%

Question: With `O=c1c2scnc2nc(SCc2c(F)cc(F)cc2F)n1-c1cc(F)c(O)nc1F` [Example 51, 6-(2,5-Difluoro-6-hydroxypyridin-3-yl)-5-((2,4,6-trifluorobenzyl)thio)thiazolo[4,5-d]-pyrimidin-7(6H)-one] as the molecule, how does the IC50 (NOX2) read?
Answer: The IC50 was > 100 µM.

Question: What about the IC50 (human NOX5 (hNOX5)) of the same molecule?
Answer: Its IC50 is 59.4 µM.

Question: And the “Qh [%]” value (human hepatocytes)?
Answer: Its value is 10%.

Question: For `O=c1c2scnc2nc(SCc2c(F)cc(F)cc2F)n1-c1cnc(O)c(F)c1F` [Example 52, 6-(4,5-Difluoro-6-hydroxypyridin-3-yl)-5-((2,4,6-trifluorobenzyl)thio)thiazolo[4,5-d]-pyrimidin-7(6H)-one], which IC50 (NOX2) is on record?
Answer: Its IC50 is > 100 µM.

Question: And the IC50 (human NOX5 (hNOX5))?
Answer: The IC50 was 38.9 µM.

Question: What about the “Qh [%]” value (human hepatocytes) of the same molecule?
Answer: Its value is 20%.

Question: What does the source list for `O=c1c2scnc2nc(SCc2ccc(Cl)cc2F)n1-c1cnc(O)nc1` [Example 53, 5-((4-Chloro-2-fluorobenzyl)thio)-6-(2-hydroxypyrimidin-5-yl)thiazolo[4,5-d]pyrimidin-7(6H)-one]?
Answer: IC50 (NOX2): > 100 µM; IC50 (human NOX5 (hNOX5)): > 100 µM; Qh [%] (human hepatocytes): 13%

Question: Which results are given for `Cc1cc(Cl)ccc1CSc1nc2ncsc2c(=O)n1-c1cnc(O)nc1` [Example 54]?
Answer: IC50 (NOX2): > 100 µM; IC50 (human NOX5 (hNOX5)): 47.6 µM; Qh [%] (human hepatocytes): 33%

Question: Which IC50 (NOX2) does the source give for `Cc1cc(F)cc(C)c1CSc1nc2ncsc2c(=O)n1-c1cnc(O)nc1` [Example 55] here?
Answer: Its IC50 is > 100 µM.

Question: What about the IC50 (human NOX5 (hNOX5)) of the same molecule?
Answer: The IC50 was 85.8 µM.

Question: And the “Qh [%]” value (human hepatocytes)?
Answer: Its value is 15%.

Question: `O=c1c2scnc2nc(SCc2ccc(Cl)cc2)n1-c1cnc(O)nc1` [Example 56] was tested. Which IC50 (NOX2) did it give?
Answer: The IC50 was > 100 µM.

Question: What about the IC50 (human NOX5 (hNOX5)) of the same molecule?
Answer: Its IC50 is > 100 µM.

Question: What about the “Qh [%]” value (human hepatocytes) of the same molecule?
Answer: The value was <4%.

Question: For `O=c1c2scnc2nc(SCc2ccc(C(F)(F)F)cc2F)n1-c1cnc(O)nc1` [Example 57], which IC50 (NOX2) is on record?
Answer: The IC50 was > 100 µM.

Question: What about the IC50 (human NOX5 (hNOX5)) of the same molecule?
Answer: Its IC50 is > 100 µM.

Question: What about the “Qh [%]” value (human hepatocytes) of the same molecule?
Answer: Its value is 7%.

Question: Which IC50 (NOX2) does the source give for `Cc1cc(F)ccc1CSc1nc2ncsc2c(=O)n1-c1cnc(O)nc1` [Example 58] here?
Answer: The IC50 was > 100 µM.

Question: What about the IC50 (human NOX5 (hNOX5)) of the same molecule?
Answer: Its IC50 is > 100 µM.

Question: What about the “Qh [%]” value (human hepatocytes) of the same molecule?
Answer: Its value is 19%.

Question: How did the IC50 (NOX2) turn out when `O=c1c2scnc2nc(SCc2c(F)cc(F)cc2F)n1-c1cnc(O)nc1` [Example 59] was run?
Answer: Its IC50 is > 100 µM.

Question: What about the IC50 (human NOX5 (hNOX5)) of the same molecule?
Answer: Its IC50 is > 100 µM.

Question: What about the “Qh [%]” value (human hepatocytes) of the same molecule?
Answer: The value was <4%.

Question: With `O=c1c2scnc2nc(SCc2ccc(C(F)(F)F)cc2)n1-c1cnc(O)nc1` [Example 60] as the molecule, how does the IC50 (NOX2) read?
Answer: The IC50 was > 100 µM.

Question: What about the IC50 (human NOX5 (hNOX5)) of the same molecule?
Answer: The IC50 was > 100 µM.

Question: What about the “Qh [%]” value (human hepatocytes) of the same molecule?
Answer: Its value is 8%.

Question: Which results are given for `O=c1c2scnc2nc(SCc2ccc(Cl)cc2F)n1-c1ccc(O)nn1` [Example 61, 5-((4-Chloro-2-fluorobenzyl)thio)-6-(6-hydroxypyridazin-3-yl)thiazolo[4,5-d]pyrimidin-7(6H)-one]?
Answer: IC50 (NOX2): > 100 µM; IC50 (human NOX5 (hNOX5)): > 100 µM; Qh [%] (human hepatocytes): 55%

Question: How did the IC50 (NOX2) turn out when `Cc1cc(Cl)ccc1CSc1nc2ncsc2c(=O)n1-c1ccc(O)nn1` [Example 62] was run?
Answer: The IC50 was > 100 µM.

Question: What about the IC50 (human NOX5 (hNOX5)) of the same molecule?
Answer: The IC50 was > 100 µM.

Question: And the “Qh [%]” value (human hepatocytes)?
Answer: Its value is 58%.

Question: How did the IC50 (NOX2) turn out when `O=c1c2scnc2nc(SCc2ccc(Cl)cc2)n1-c1ccc(O)nn1` [Example 64] was run?
Answer: The IC50 was > 100 µM.

Question: What about the IC50 (human NOX5 (hNOX5)) of the same molecule?
Answer: Its IC50 is > 100 µM.

Question: And the “Qh [%]” value (human hepatocytes)?
Answer: Its value is 47%.

Question: For `O=c1c2scnc2nc(SCc2ccc(C(F)(F)F)cc2F)n1-c1ccc(O)nn1` [Example 65], which IC50 (NOX2) is on record?
Answer: The IC50 was > 100 µM.

Question: And the IC50 (human NOX5 (hNOX5))?
Answer: The IC50 was > 100 µM.

Question: And the “Qh [%]” value (human hepatocytes)?
Answer: Its value is 50%.

Question: How did the IC50 (NOX2) turn out when `O=c1c2scnc2nc(SCc2ccc(C(F)(F)F)cc2)n1-c1ccc(O)nn1` [Example 66] was run?
Answer: Its IC50 is > 100 µM.

Question: And the IC50 (human NOX5 (hNOX5))?
Answer: The IC50 was 74.8 µM.

Question: What about the “Qh [%]” value (human hepatocytes) of the same molecule?
Answer: Its value is 40%.

Question: What does the source list for `O=c1c2scnc2nc(SCc2c(F)cc(F)cc2F)n1-c1ccc(O)nn1` [Example 67]?
Answer: IC50 (NOX2): > 30 µM; IC50 (human NOX5 (hNOX5)): > 100 µM; Qh [%] (human hepatocytes): 37%

Question: With `O=c1c2scnc2nc(SCc2c(F)cc(F)cc2F)n1-c1cnc(O)cn1` [Example 69, 6-(5-Hydroxypyrazin-2-yl)-5-((2,4,6-trifluorobenzyl)thio)thiazolo[4,5-d]pyrimidin-7(6H)-one] as the molecule, how does the IC50 (NOX2) read?
Answer: The IC50 was > 100 µM.

Question: What about the IC50 (human NOX5 (hNOX5)) of the same molecule?
Answer: The IC50 was > 100 µM.

Question: And the “Qh [%]” value (human hepatocytes)?
Answer: The value was <4%.
